{"source": "patent US7070892B2", "about": "“Imaging members” (Xerox Corporation, priority 2004, dated 2006)", "experiment": "solubility of the electron transport component (CFM derivative) in organic solvents", "format": "physicochemical"}
{"smiles": "CCCCOC(=O)c1cccc2c1-c1ccccc1C2=C(C#N)C#N", "note": "[R8 is n-butyl, (4-n-butoxycarbonyl-9-fluorenylidene)malononitrile]", "values": [{"measurement": "solubility of the electron transport component", "setting": "solvent is butylacetate", "result": 8, "unit": "grams/liter"}, {"measurement": "solubility of the electron transport component", "setting": "solvent is tetrahydrofuran", "result": 105, "unit": "grams/liter"}]}
{"smiles": "CCCCC(CC)COC(=O)c1cccc2c1-c1ccccc1C2=C(C#N)C#N", "note": "(stereo not shown) [R8 is 2-ethylhexyl, 9-dicyanomethylenefluorene-4-(2-ethylhexyl)carboxylate]", "values": [{"measurement": "solubility of the electron transport component", "setting": "solvent is butylacetate", "result": 25, "unit": "grams/liter"}, {"measurement": "solubility of the electron transport component", "setting": "solvent is tetrahydrofuran", "result": 205, "unit": "grams/liter"}]}
